Series [1] has as its system LC3B. Briefly: LC3B immunostaining autophagy assay, average of four cell lines. It is filed as cell-based. The settings on record: for EC50: 16 h, read-out: Autophagy EC50.
Series [2] has as its system Vero-E6 cells. Briefly: Nuclei counts in autophagy assay in Vero-E6 cells. It is filed as cell-based. To be noted: for cytotoxicity based on nuclei counts: highest concentrations (50 μM for all except for ROC-325 at 25 μM).
A further series deals with Vero E6 cells. The settings on record: for cell toxicity: Vero E6, up to 30 μM; for cytotoxic: at all concentrations.
For series [3], the system named is SARS-CoV-2. To be noted: similar CPE assay with SARS-CoV-2 in Vero-E6 cells; ref [61]; cited from earlier work.
For series [4] the following is noted: cited from earlier work; for Cmax: human plasma, clinically efficacious doses.
A short description of the next series: in vitro. The settings on record: African green monkey, CPE CC50, uninfected Vero E6, 72 h, Cell Titer-Glo.
The test system of series [5] is SARS-CoV-2. In kind it is cell-based, SARS CoV-2 (USA_WA1/2020). To be noted: Vero-E6, up to 30 μM.
The next series can be described thus: Cell. It is filed as cell-based.
Series [6] deals with LC3B. Briefly: LC3B immunostaining autophagy assay in Vero-E6 cells. In kind it is cell-based. To be noted: ~16 h; for LC3B spot counts: Vero-E6, 50 μM – 0.02 μM.
For series [7], the system named is Vero-E6 cells. The settings on record: drug-repurposing screen in Vero-E6 cells; ref [61]; cited from earlier work.
For series [8] the following is noted: in monkey; ref [77]; cited from earlier work.
The subject of series [9] is LC3B. Briefly: LC3B immunostaining autophagy assay in Huh-7.5 cells. It is filed as cell-based, human.
Another series concerns acidic organelles. Briefly: LysoTracker Deep Red staining assay in Vero-E6 cells. In kind it is cell-based. The settings on record: Vero-E6, cell counts, highest concentration.

Like-named read-outs stand apart in the source and are kept apart here.

Regarding `CCN(CC)CCCC(C)Nc1ccnc2cc(Cl)ccc12` (centres unmarked) [Chloroquine], the EC50 (as a rule, the concentration needed to bring the measured effect to its halfway point) with LC3B [1] turned out to be 3.29 ± 1.86 µM. Also, in the series with Vero-E6 cells [2], the “cytotoxicity based on nuclei counts” value is given as “not cytotoxic”. For the same compound, in the series on Vero E6 cells, the “cell toxicity” value is “no associated cell toxicity” and the cytotoxic entry is reported as “less than 50%”. Further, the IC50 (usually the concentration needed to halve the response being measured) in the series with SARS-CoV-2 [3] is 42 µM. In series [4] (ref [78], [79]), the Vd (usually a proportionality between amount in the body and measured concentration, not a real space) was 100 L/kg; the bioavailable is recorded as 75%. Moreover, the cytotoxic concentration (CC50) (usually the concentration giving 50% cytotoxicity) in “in vitro” is > 30 µM.
In the case of `CN(C)CCCN1c2ccccc2CCc2ccc(Cl)cc21` [Clomipramine], in the series with SARS-CoV-2 [5], the “activity against SARS-CoV-2 CPE” value is “completely prevent SARS-CoV-2 CPE”. Also, in the series on LC3B [1] (all cell lines except for Vero-E6), the “increasing LC3B” value is “effective”. For the same compound, in “Cell”, the CC50 at 16 h is > 50 µM. The “submaximal increase of LC3B spot counts” value in the series with LC3B [6] (Vero-E6, normalized to DMSO (0%) and CQ (100%)) is listed as 40%. For the same compound, the “cytotoxicity based on nuclei counts” value in the series with Vero-E6 cells [2] is on record as “not cytotoxic”. Moreover, the cytotoxicity entry with Vero E6 cells (at 30.0 μM) is given as “less than 20%”. In addition, the cytotoxic result in the series with Vero E6 cells is recorded as “less than 50%”. In addition, in [4] (ref [76]), the Cmax (commonly the maximum level reached in the sampled fluid or tissue) was 290 nM and the “Vd” value is listed as “high”. For the same compound, the CC50 in the series “in vitro” is > 30 µM. Also, the CC50 with Vero-E6 cells [7] is > 30 µM.
Take `CCN(CC)CCNc1ccc(CO)c2sc3ccccc3c(=O)c12` [Hycanthone]: in the series on SARS-CoV-2 [5], the “activity against SARS-CoV-2 CPE” value is reported as “moderate levels of activity”. Moreover, the EC50 in the series with LC3B [1] amounted to 7.35 ± 4.7 µM. Moreover, the CC50 at 16 h in the series “Cell” is 11.3 ± 2.73 µM. Besides, in the series with LC3B [6], the “LC3B spot counts” value is listed as “maximal spot counts”. The cells killed entry in the series with Vero-E6 cells [2] (at 50 μM) is “approximately 60%”. Also, the “cell toxicity” value in the series with Vero E6 cells is on record as “cytotoxic at the highest concentrations”. The “reduction of cell viability” value in the series on Vero E6 cells (at 30 μM) is recorded as ~100%. The “absorption” value in series [8] is listed as “well-absorbed”.
Turning to `CCN(CCO)CCCC(C)Nc1ccnc2cc(Cl)ccc12` (centres unmarked) [Hydroxychloroquine, hydroxychloroquine], the half-maximal effective concentration (EC50) in the series on LC3B [1] was 6.55 ± 6.67 µM. In “Cell”, the CC50 at 16 h was > 50 µM. In the series with Vero-E6 cells [2], the “cytotoxicity based on nuclei counts” value is listed as “not cytotoxic”. In the series with Vero E6 cells, the “cell toxicity” value is “no associated cell toxicity” and the cytotoxic result is reported as “less than 50%”. Further, in the series on SARS-CoV-2 [3], the IC50 is 9.21 µM. In addition, in series [4] (ref [80]), the Cmax is 1500 nM; the T1/2 is ~40 days; the “absorption” value is “rapid and complete absorption”. For the same compound, the 50% cytotoxic concentration (CC50) in the series “in vitro” was > 30 µM.
As to `OC(c1cc(C(F)(F)F)nc2c(C(F)(F)F)cccc12)C1CCCCN1` (centres unmarked) [Mefloquine], the “activity against SARS-CoV-2 CPE” value with SARS-CoV-2 [5] was “moderate levels of activity”. It took 18.4 ± 2.08 µM to reach half-maximal cytotoxicity in the series “Cell” (CC50 at 16 h). Further, the EC50 in the series with LC3B [9] (Homo sapiens, Huh7.5, read-out: Autophagy EC50) was 7.3 µM. In addition, the “LC3B spot counts” value in the series with LC3B [9] (Huh-7.5) is “increased LC3B spot counts even at low concentrations”; in the series on LC3B [6], “ineffective”. In the series on Vero-E6 cells [2], the “cytotoxicity based on nuclei counts” value is on record as “completely toxic”. The “toxicity in LysoTracker assay” value in the series with acidic organelles is reported as “toxic at the highest concentration”. Further, the “cell toxicity” value in the series on Vero E6 cells is reported as “cytotoxic at the highest concentrations”. In the series on Vero E6 cells (at 15.0 to 30.0 μM), this compound had a cytotoxicity of 100%. Further, the IC50 in the series with SARS-CoV-2 [3] is 7.11 µM. Further, the Cmax in [4] (ref [81]) was 4500 nM. Further, the CC50 in the series on Vero-E6 cells [7] is > 18.5 µM.
`CCC(CC)COC(=O)[C@H](C)N[P@](=O)(OC[C@H]1O[C@@](C#N)(c2ccc3c(N)ncnn23)[C@H](O)[C@@H]1O)Oc1ccccc1` [Remdesivir, remdesivir]: the “cell toxicity” value in the series with Vero E6 cells was “no apparent cytotoxicity”.

Values taken from publication PMC7259466 (bioRxiv, 2020).
